Where two headings read alike, the source gives them in different places.
Key:
[1] = molecular target: T1, porcine pancreatic α-amylase (Sus scrofa, UniProt P00690); test: Continuous α-amylase activity assay (starch hydrolysis) by ITC; type: biochemical; conditions: for IC50: calculated according to the Cheng–Prussoff equation (eq 8) for a 1 M substrate
T1 sequence (P00690 16-511): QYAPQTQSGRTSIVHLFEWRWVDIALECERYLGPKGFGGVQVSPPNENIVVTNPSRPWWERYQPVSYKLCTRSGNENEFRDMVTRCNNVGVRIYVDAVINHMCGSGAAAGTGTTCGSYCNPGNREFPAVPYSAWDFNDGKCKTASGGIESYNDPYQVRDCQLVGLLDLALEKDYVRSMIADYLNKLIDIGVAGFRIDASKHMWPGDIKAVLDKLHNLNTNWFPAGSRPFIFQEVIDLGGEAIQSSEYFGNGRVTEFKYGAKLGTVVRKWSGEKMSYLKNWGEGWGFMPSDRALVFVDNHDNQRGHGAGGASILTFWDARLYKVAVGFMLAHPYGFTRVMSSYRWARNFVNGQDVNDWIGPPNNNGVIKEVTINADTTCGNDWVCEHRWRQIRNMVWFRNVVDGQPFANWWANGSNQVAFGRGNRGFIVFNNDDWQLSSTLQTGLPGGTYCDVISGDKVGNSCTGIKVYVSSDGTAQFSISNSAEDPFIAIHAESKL
Method: Without rebuffering, α-amylase was diluted each day with 0.1 M phosphate buffer/0.04 M NaCl to a final dilution of 1:1000 and stored at 4 °C. […] The starch solution was prepared daily, according to the protocol recommended by Brodkorb et al. with some modifications.[37],[38]
The starch suspension in 0.1 M phosphate buffer/0.04 M NaCl was heated for 5 min under vigorous stirring. After cooling to room temperature, the solution was diluted to a final mass concentration of 40.5 g/L (equivalent to 250 mM based on the molecular weight of the glucose monomers). The concentration of starch is typically expressed as a percentage by weight (%, w/v) due to the inherent polydispersity of the molecule, which is influenced by the source of the natural starch, the manufacturing process, and the preparation of the sample.[28],[39] However, the calculation of inhibition constants requires the use of molarities.
Control experiments were performed with 12 nM α-amylase in 0.1 M phosphate buffer/0.04 M NaCl placed in the sample cell at 310 K, and various volumes (1–10 μL) of starch solution were recurrently injected up to three times with an injection interval of 1600 s. It was elucidated that the optimal volume for reaching the maximal turnover velocity (vmax) was 5 μL. Prior to measurement, α-amylase was incubated with the flavan-3-ols for 60 min at 277 K to ensure that adsorption equilibrium has been reached. This was compulsory as the time required for the ITC system to reach equilibrium and to start measurement varied considerably (10–25 min). To confirm α-amylase stability, controls without an inhibitor were performed at the beginning and the end of each day.
The release of heat during the conversion of starch was monitored, and calculations were performed using Microsoft Excel software. The detected thermal power is directly proportional to the enzymatic rate (v0) (eq 1 and 2).[40],[41] [drawing 1] 1 [drawing 2] 2
The heat rate (dQ/dt) is obtained as a function of time (t) and provides information about the conversion rate (ν). The reaction enthalpy (ΔRHapp) is calculated by integrating the heat peak over its entire extent and dividing the result by the number of substrate molecules converted by the enzyme (eq 3). The substrate concentration at time t ([S]t) is calculated according to eq 4. [drawing 3] 3 [drawing 4] 4
The Michaelis–Menten constant (Km) is defined as the substrate concentration at the time (t0.5) when the reaction rate reaches half-maximum (vmax) (eq 5). [drawing 5] 5
Thus, the thermogram provides all information to calculate inhibition constants. While competitive inhibition (Kic, eq 6) is based on the formation of an enzyme–inhibitor complex (EI), the uncompetitive inhibition (Kiu, eq 7) refers to the binding of a ternary enzyme–substrate–inhibitor complex (ESI). [drawing 6] 6 [drawing 7] 7
The maximal conversion rate vmax and the Michaelis–Menten constant Km are calculated from the control experiments in the absence of an inhibitor. In the presence of an inhibitor [I], the apparent values of [drawing 8] and [drawing 9] have been determined.
The inhibitor concentration that is required to reduce the conversion rate to 50% (IC50) depends on the substrate concentration [S] and is calculated according to the Cheng–Prussoff equation (eq 8).[42] [drawing 10] 8

[2] = molecular target: T1, porcine pancreatic α-amylase; test: Interaction studies by isothermal titration calorimetry (ITC); type: binding
Method: Isothermal titration calorimetry was performed using an Affinity ITC LV with a cell volume of 182 μL (TA Instruments, Eschborn, Germany). Interaction experiments were recorded at 298 K with 0.1 mM rebuffered α-amylase in the sample cell and 4 mM flavan-3-ols in the injection syringe. For each ligand, experiments were performed with 25 injections of 3 μL and a spacing of 200 s between injections. Experiments were carried out in duplicates. Additional measurements were conducted in buffer to ensure that any mixing effects were negligible and that the observed heat development was solely attributed to the interaction studied (S4). In particular, at higher phenolic concentrations, endothermic peaks were observed, arising from the dilution effect.
The data analysis for the interaction studies was conducted using software NanoAnalyze, with manual integration of the peaks. To correct the data for noninteraction-related heats, the mean heat released during the final three injections was subtracted as a constant blank. This procedure is an effective estimation strategy that minimizes errors during the fitting process, provided that the protein is fully saturated.[35] The data were fitted using the “independent” model. To prevent overparametrization, n was set to 1, while Ka and ΔH were maintained as variables, as recommended for low-affinity binding.[35],[36] The stability of the ligand at room temperature was ensured by monitoring the concentrations prior to and following the experiment (S5).

[3] = 100 μM flavan-3-ol, 310 K, initial injection, control 727 ± 103
[4] = 100 µM flavan-3-ol, inj. 2, read-out: Kic
[5] = 100 µM flavan-3-ol, inj. 2, read-out: Kiu
[6] = 100 µM flavan-3-ol, inj. 3, read-out: Kic
[7] = 100 µM flavan-3-ol, inj. 3, read-out: Kiu
[8] = competitive inhibition constant, 100 μM flavan-3-ol, 310 K, initial injection (inj. 1), read-out: Kic
[9] = relative to control, 100 μM flavan-3-ol, 12 nM α-amylase, starch, 310 K, initial injection (inj. 1)
[10] = relative to control, 100 μM flavan-3-ol, 310 K, initial injection
[11] = 0.1 mM α-amylase, 4 mM flavan-3-ol, phosphate buffer, 298 K, n set to 1
[12] = 0.1 mM α-amylase, 4 mM flavan-3-ol, phosphate buffer, 298 K, n set to 1, read-out: Kd
[13] = ITC, values as restated in the discussion
[14] = phosphate buffer, 298 K, n set to 1
[15] = uncompetitive inhibition constant, 100 μM flavan-3-ol, 310 K, initial injection (inj. 1), read-out: Kiu
[16] = PC C1 concentrations of ∼105 μM, 310 K

| SMILES | α(Kic/Kiu) ([1]; 100 μM flavan-3-ol, 310 K) | ΔRHapp [1, 3] [kcal/mol] | vmax ([1]; 100 µM flavan-3-ol, inj. 2) [%] | Ki [1, 4] [µM] | Ki [1, 5] [µM] | vmax ([1]; 100 µM flavan-3-ol, inj. 3) [%] | Ki [1, 6] [µM] | Ki [1, 7] [µM] | Ki [1, 8] [µM] | vmax [1, 9] [%] | (dQ/dt)max [1, 10] [%] | Ka [2, 11] | Kd [2, 12] [µM] | Ka [2, 13] [M^–1] | ΔG [2, 14] [kcal/mol] | ΔH [2, 14] [kcal/mol] | ΔS [2, 14] [J/mol·K] | IC50 [1] [µM] | Ki [1, 15] [µM] | further results |
| --- | --- | --- | --- | --- | --- | --- | --- | --- | --- | --- | --- | --- | --- | --- | --- | --- | --- | --- | --- | --- |
| Oc1cc(O)c2c(c1)O[C@H](c1ccc(O)c(O)c1)[C@H](O)[C@H]2c1c(O)cc(O)c2c1O[C@H](c1ccc(O)c(O)c1)[C@@H](O)C2 [PC B1, procyanidin B1] | 0.7 ± 0.2 | 0.156 ± 0.0229 | 65±8 | 216 ± 65 | 208 ± 78 | 70±1 | 539 ± 86 | 240 ± 14 | 155 ± 79 | 66 ± 9 | 66 ± 14 | 1.1±0.1 10^3 M^-1 | 900 | 1100 | -4.06 ± 0.024 | -5.26 ± 0.359 | -16±5 | – | – | – |
| Oc1cc(O)c2c(c1)O[C@H](c1ccc(O)c(O)c1)[C@@H](O)C2 [CAT, (+)-Catechin] | 0.8 ± 0.4 | 0.162 ± 0.0335 | 78±5 | 447 ± 151 | 403 ± 134 | 79±2 | 458 ± 152 | 399 ± 54 | 356 ± 209 | 79 ± 6 | 80 ± 13 | 2.1±0.0 10^3 M^-1 | 500 | – | -4.54 ± 0 | -12.7 ± 1.1 | – | 431 ± 217 | 431 ± 217 | – |
| Oc1cc(O)c2c(c1)O[C@H](c1ccc(O)c(O)c1)[C@H](O)[C@H]2c1c(O)cc(O)c2c1O[C@H](c1ccc(O)c(O)c1)[C@H](O)[C@H]2c1c(O)cc(O)c2c1O[C@H](c1ccc(O)c(O)c1)[C@H](O)C2 [PC C1, procyanidin C1] | 0.9 ± 0.1 | 0.143 ± 0.00789 | 50±5 | 143 ± 56 | 102 ± 19 | 59±2 | 395 ± 78 | 145 ± 14 | – | 50 ± 4 | 44 ± 4 | – | – | – | – | – | – | 103 ± 16 | 103 ± 16 | reduction in α-amylase activity ([1]; 100 μM PC C1): 50%; (dQ/dt)max [1, 16]: 23 ± 0%; ΔRHapp [1, 16]: 0.0406 ± 0.01 kcal/mol; vmax ([1]; PC C1 concentrations of ∼105 μM, 310 K, value printed in brackets): (98 ± 21) %; interaction with α-amylase observed by ITC ([2]; 0.1 mM α-amylase, 4 mM ligand, 298 K): no observable interaction |
| Oc1cc(O)c2c(c1)O[C@H](c1ccc(O)c(O)c1)[C@H](O)C2 [EC, (−)-Epicatechin] | 0.7 ± 0.1 | 0.195 ± 0.0127 | 77±5 | 305 ± 162 | 389 ± 41 | 76±3 | 291 ± 80 | 330 ± 52 | – | 78 ± 4 | 82 ± 8 | – | 300 | – | -4.78 ± 0.048 | -17.2 ± 1.67 | -173±24 | – | – | Kd ([2]; Ka, 0.1 mM α-amylase, 4 mM flavan-3-ol, phosphate buffer, 298 K, n set to 1): 263 µM |
| Oc1cc(O)c2c(c1)O[C@H](c1ccc(O)c(O)c1)[C@H](O)[C@H]2c1c(O)cc(O)c2c1O[C@H](c1ccc(O)c(O)c1)[C@H](O)C2 [PC B2, procyanidin B2] | 1.0 ± 0.1 | 0.205 ± 0.00789 | 62±6 | 188 ± 34 | 195 ± 57 | 61±7 | 202 ± 73 | 165 ± 49 | – | 62 ± 4 | 56 ± 4 | 0.9±0.1 10^3 M^-1 | 1100 ± 100 | 900 | -4.06 ± 0.048 | -1.9 ± 0.096 | 31±1 | – | – | – |
